Results reported in patent US9110059B2, “Bio-pin” (Industry-Academic Cooperation Foundation, Yonsei University, priority 2011, dated 2015).

Experiments:
Assay type in all cases: cell-based
[1] = test system: vascular cell adhesion molecule-1 (VCAM-1); assay: Immunoblotting of HUVEC lysate with anti-VCAM-1 antibody; settings: TNF-alpha 10 ng/mL for 24 hours
Protocol: (§1) HUVECs (5×10^4 cells/well) were cultured in an EGM medium (Lonza, USA) on a 24-well plate, starved for 4 hours in a 0.5% EBM medium, and treated with TNF-alpha (10 ng/mL) for 24 hours. Thereafter, the HUVECs were treated with a CellMask™ plasma membrane stain (Invitrogen, USA) at a final concentration of 5 μg/mL, reacted at 37° C. for 30 minutes in a CO2 incubator, and then washed three times with PBS.
(§2) Also, to determine whether the HUVECs were suitably stimulated with TNF-alpha, immunoblotting was performed using anti-ICAM-1 and anti-VCAM-1 antibodies.

[2] = test system: intercellular cell adhesion molecule-1 (ICAM-1); assay: Immunoblotting of HUVEC lysate with anti-ICAM-1 antibody; settings: TNF-alpha 10 ng/mL for 24 hours
Protocol: as §1, §2

[3] = test system: rat mesenchymal stem cells attached to H9c2 cells; assay: Adhesion of bio-pin-treated mesenchymal stem cells to H9c2 cells (intercellular bond number); settings: stem cells treated with 1 μM bio-pin for an hour, kept 10 minutes on H9c2 cells; fluorescence microscope and spectrometer
Protocol: (§3) Rat cardiac myoblast H9c2 cells were incubated until a 4-well chamber (Lab-Tek chamber slide) was 100% filled with the H9c2 cells. Thereafter, the H9c2 cells were treated with a cell-labeled dye (Vybrant™ DiI) at a final concentration of 5 μl/mL, reacted at 37° C. for 30 minutes in a CO2 incubator, and then washed three times with PBS.
(§4) Also, rat mesenchymal stem cells were cultured in a MesenPRO (Gibco, USA) medium in a petri dish. Thereafter, trypsin-EDTA and a trypsin-neutralizing solution were added at a ratio of 1:1, and then reacted for 5 minutes to detach the stem cells. The stem cells were treated with a cell-modifying dye (Vybrant™ DiO, Invitrogen, USA) at a final concentration of 5 μl/mL, reacted at 37° C. for 30 minutes in a CO2 incubator, washed three times with PBS, and then centrifuged for 3 minutes at a rotary speed of 1,200 rpm to be prepared.
(§5) The prepared stem cells were treated with the peptide-based complex previously prepared in Example 1 or 2 at a final concentration of 1 μM, reacted at 37° C. for an hour in a CO2 incubator while stirring right and left, washed three times with PBS, and then centrifuged to obtain a cell pellet. […] To quantify the MSCs attached to the H9c2 cells, a cell medium was removed off, and 200 μl of 0.1% Triton X-100 was added, and removed off after 5 minutes.

[4] = test system: rat mesenchymal stem cells (MSCs) attached to H9c2 cells; assay: Adhesion of BPin-RGD-treated mesenchymal stem cells to H9c2 cells (intercellular bond number); settings: stem cells treated with 100 nM bio-pin for an hour, kept 10 minutes on H9c2 cells; fluorescence 484 nm/501 nm
Protocol: as §3, with “CellMask™ plasma membrane stain (Invitrogen, USA)” for “cell-labeled dye (Vybrant™ DiI)”
as §4, with “stem cells (MSCs) were cultured” for “stem cells were cultured”, “concentration of 2 μl/mL, reacted” for “concentration of 5 μl/mL, reacted”, “of 1,200 rpm.” for “of 1,200 rpm to be prepared.”
as §5, with “bio-pin” for “peptide-based complex previously”, “3” for “1 or 2”, “100 nM,” for “1 μM,”, “pellet. Subsequently, the cell pellet was re-suspended in 400 μl of a DMEM medium supplemented with 10% FBS.” for “pellet.”, “cells,” for “cells, a cell medium was removed off, and”

TNF-alpha was tested, and the “VCAM-1 expression in HUVECs (FIG. 9)” value [1] was “increasingly expressed” and the “ICAM-1 expression in HUVECs (FIG. 9)” value [2] was “increasingly expressed”.

In the case of “BPin-55: bio-pin in which TAT cell-penetrating peptides are fused with N- and C-terminus of 31-amino-acid OPRD first transmembrane domain peptide (YGRKKRRQRRRGSLAIAITALYSAVCAVGLLGNVLVMFGIVRYTYGRKKRRQRRR; BPin-55 TAT-OPRD-TAT)”, the “number of intercellular bonds (FIGS. 5 and 6)” value [3] is reported as “remarkably increased”.

“BPin-RGD: bio-pin with adhesive peptide (GRGDSP) at N-terminus and TAT cell-penetrating peptide at C-terminus of the 31-amino-acid OPRD peptide (GRGDSPGSLAIAITALYSAVCAVGLLGNVLVMFGIVRYTYGRKKRRQRRR; BPin-RGD RGD-OPRD-TAT)” was tested, and the “number of intercellular bonds (FIG. 7)” value [4] was “remarkably increased”.
